The values below come from patent US20170152226A1, “FUNCTIONALISED AND SUBSTITUTED INDOLES AS ANTI-CANCER AGENTS” (Novogen Ltd., priority 2014, published 2017).

Where two headings read alike, the source gives them in different places.

Holding throughout (assay): Anti-proliferative activity, cell-titre luminescent viability assay
Common to all, as to assay type: cell-based

One test has as its system A549. The conditions noted are these: Homo sapiens, read-out: IC50 Lung (NSLC) A549. The protocol: (§1) The ability of compounds 3501-3540 and 3542-3545 to inhibit the proliferation of cancer cells representative of neuroblastoma, melanoma, prostate cancer, colorectal cancer, non-small cell lung carcinoma, and triple negative breast cancer was assessed. Briefly, a pre-determined number of cells as calculated from cell growth assays for each of the cell lines employed were seeded into their respective culture medium (using ATCC culture parameters—http://www.atcc.org) and cultured for 24 hours at 37° C. and 5% CO2 in 96-well culture plates. Once attached, each cell line was then exposed to increasing concentrations of each respective analogue (0.03, 0.3, 3 and 30 μM for compounds in Table 1; 0.1, 0.3, 1, 3, 10 and 30 μM for compounds in Table 2), cultured for a further 72 hours and exposed to cell-titre luminescent reagent (100 μL/well) for a further 30 min) to assess for cell viability. Luminescence was captured using an EnVision multilabel reader and the data for each analogue concentration was normalized, as a percentage, to the no treatment control. For compounds 3501, 3503, 3505-08, 3512-18, 3520, 3522-24 and 3531-36, semi-log plots of Percent of Control versus concentration were prepared and IC50 determined using linear regression analysis. For compounds 3502, 3504, 3509-11, 3519, 3521, 3525-30, 3537-40 and 3542-45, cell viability was normalized to control (vehicle alone) and dose-response curves, and half maximal effective concentration (EC50) values were determined using Graph Pad Prism 6 (nonlinear regression sigmoidal dose-response variable slope).

A further test relates to CaCo2. The following applies: Homo sapiens, read-out: IC50 Colorectal CaCo2. The method, then:
as §1

In the next test the test system is DU145. The conditions noted are these: Homo sapiens, read-out: IC50 Prostate DU145. The protocol:
as §1

The test system of another test is MDA-MB-231. The conditions noted are these: Homo sapiens, read-out: IC50 Breast MDA-MB-231. The protocol: as §1
The next test has as its system PC3. The conditions noted are these: Homo sapiens, read-out: IC50 Prostate PC3. The method, then:
as §1

A further test has as its system SK-Mel-28. The following applies: Homo sapiens, SK-MEL-28, 72 hours, read-out: IC50 Melanoma SK-Mel-28. The protocol: as §1
The next test concerns SK-N-SH. The following applies: Homo sapiens, SK-N-SH, read-out: IC50 Neuroblastoma SK-N-SH. The method, then:
as §1

[1] abbreviates: A549, 72 h, 0.03, 0.3, 3 and 30 μM, linear regression of semi-log plots.
[2] abbreviates: Caco-2, 72 h, 0.03, 0.3, 3 and 30 μM, linear regression of semi-log plots.
Setting [3] is: DU-145, 72 h, 0.03, 0.3, 3 and 30 μM, linear regression of semi-log plots.
Where [4] appears, read: MDA-MB-231, 72 h, 0.03, 0.3, 3 and 30 μM, linear regression of semi-log plots.
The mark [5] stands for this setting: PC-3, 72 h, 0.03, 0.3, 3 and 30 μM, linear regression of semi-log plots.
The mark [6] stands for this setting: 0.03, 0.3, 3 and 30 μM, linear regression of semi-log plots.
Setting [7] is: 72 h, 0.03, 0.3, 3 and 30 μM, linear regression of semi-log plots.
Where [8] appears, read: A549, 72 h, 0.1, 0.3, 1, 3, 10 and 30 μM, nonlinear regression sigmoidal dose-response (EC50).
The mark [9] stands for this setting: Caco-2, 72 h, 0.1, 0.3, 1, 3, 10 and 30 μM, nonlinear regression sigmoidal dose-response (EC50).
Setting [10] is: DU-145, 72 h, 0.1, 0.3, 1, 3, 10 and 30 μM, nonlinear regression sigmoidal dose-response (EC50).
The mark [11] stands for this setting: MDA-MB-231, 72 h, 0.1, 0.3, 1, 3, 10 and 30 μM, nonlinear regression sigmoidal dose-response (EC50).
The mark [12] stands for this setting: PC-3, 72 h, 0.1, 0.3, 1, 3, 10 and 30 μM, nonlinear regression sigmoidal dose-response (EC50).
Where [13] appears, read: 0.1, 0.3, 1, 3, 10 and 30 μM, nonlinear regression sigmoidal dose-response (EC50).
Setting [14] is: 72 h, 0.1, 0.3, 1, 3, 10 and 30 μM, nonlinear regression sigmoidal dose-response (EC50).

With `Cc1c(C)n(CCCN2CCN(C)CC2)c2ccc(Nc3cccc(C(=O)N4CCN(CCc5ccc6c(c5)OCO6)CC4)c3)cc12` [Compound 3515, (4-(2-(benzo[d][1,3]dioxol-5-yl)ethyl)piperazin-1-yl)(3-((2,3-dimethyl-1-(3-(4-methylpiperazin-1-yl)propyl)-1H-indol-5-yl)amino)phenyl)methanone], the IC50 (commonly the concentration needed to halve the response being measured) is 4.3 µM in the test with A549 (setting [1]); 4.6 µM in the test with CaCo2 (setting [2]); 4 µM in the test with DU145 (setting [3]); 3.3 µM with MDA-MB-231 (setting [4]); 4.9 µM with PC3 (setting [5]); 2.7 µM in the test with SK-Mel-28 (setting [6]). Moreover, the half-maximal inhibitory concentration (IC50) with SK-N-SH (setting [7]) turned out to be 3.4 µM.

With `COc1cccc(CCN2CCN(C(=O)c3cccc(Nc4ccc5c(c4)c(C)c(C)n5CCCN4CCN(C)CC4)c3)CC2)c1` [Compound 3517, (3-((2,3-dimethyl-1-(3-(4-methylpiperazin-1-yl)propyl)-1H-indol-5-yl)amino)phenyl)(4-(3-methoxyphenethyl)piperazin-1-yl)methanone], the concentration for half-maximal inhibition (IC50) with A549 (setting [1]) was 4.4 µM; with CaCo2 (setting [2]), greater than 30 µM; in the test on DU145 (setting [3]) it was 7.1 µM; with MDA-MB-231 (setting [4]), 5.3 µM; in the test on PC3 (setting [5]) it was 21.1 µM; in the test with SK-Mel-28 (setting [6]), 3.7 µM. The IC50 in the test with SK-N-SH (setting [7]) stood at 4.5 µM.

As for `Cc1c(C)n(CCCN2CCN(C)CC2)c2ccc(Nc3cccc(C(=O)N4CCN(CCc5ccccc5)CC4)c3)cc12` [Compound 3518, (3-((2,3-dimethyl-1-(3-(4-methylpiperazin-1-yl)propyl)-1H-indol-5-yl)amino)phenyl)(4-phenethylpiperazin-1-yl)methanone], the concentration for half-maximal inhibition (IC50) worked out at 3 µM in the test with A549 (setting [1]); 2.5 µM with CaCo2 (setting [2]); 3.2 µM in the test with DU145 (setting [3]); 2.1 µM in the test on MDA-MB-231 (setting [4]); 4.1 µM in the test on PC3 (setting [5]); 2.4 µM in the test with SK-Mel-28 (setting [6]). Besides, the 50% inhibitory concentration (IC50) in the test on SK-N-SH (setting [7]) stood at 2.3 µM.

Turning to `Cc1c(C)n(CCCN2CCN(C)CC2)c2ccc(Cc3ccc(C(=O)N4CCN(CCc5ccc(F)cc5)CC4)cc3)cc12` [Compound 3519, (4-((2,3-dimethyl-1-(3-(4-methylpiperazin-1-yl)propyl)-1H-indol-5-yl)methyl)phenyl)(4-(4-fluorophenethyl)piperazin-1-yl)methanone], the IC50 with A549 (setting [8]) came to 4.4 µM; in the test with CaCo2 (setting [9]), 5.6 µM; in the test with DU145 (setting [10]), 4.3 µM; in the test on MDA-MB-231 (setting [11]), 5 µM; with PC3 (setting [12]), 4.9 µM; in the test with SK-Mel-28 (setting [13]) it was 2.5 µM. Also, in the test on SK-N-SH (setting [14]), the IC50 was 2.6 µM.

As to `Cc1c(C)n(CCCN2CCN(C)CC2)c2ccc(Cc3ccc(C(=O)N4CCN(CCc5ccc6c(c5)OCO6)CC4)cc3)cc12` [Compound 3521, (4-(2-(benzo[d][1,3]dioxol-5-yl)ethyl)piperazin-1-yl)(4-((2,3-dimethyl-1-(3-(4-methylpiperazin-1-yl)propyl)-1H-indol-5-yl)methyl)phenyl)methanone], the IC50 was determined as 5.9 µM with A549 (setting [8]); 6 µM in the test with CaCo2 (setting [9]); 5.7 µM with DU145 (setting [10]); 6.6 µM with MDA-MB-231 (setting [11]); 6.3 µM with PC3 (setting [12]); 4.1 µM in the test with SK-Mel-28 (setting [13]). The half-inhibitory concentration (IC50) in the test on SK-N-SH (setting [14]) worked out at 4.2 µM.

`Cc1c(C)n(CCCN2CCN(C)CC2)c2ccc(Cc3ccc(C(=O)N4CCN(CCc5cccc(F)c5)CC4)cc3)cc12` [Compound 3522, (4-((2,3-dimethyl-1-(3-(4-methylpiperazin-1-yl)propyl)-1H-indol-5-yl)methyl)phenyl)(4-(3-fluorophenethyl)piperazin-1-yl)methanone]: the concentration for half-maximal inhibition (IC50) worked out at 1.6 µM in the test on A549 (setting [1]); 3 µM with CaCo2 (setting [2]); 2.4 µM with DU145 (setting [3]); 1.3 µM in the test on MDA-MB-231 (setting [4]); 2.5 µM in the test with PC3 (setting [5]); 1 µM with SK-Mel-28 (setting [6]). Moreover, the concentration for half-maximal inhibition (IC50) with SK-N-SH (setting [7]) is 2 µM.

Regarding `COc1cccc(CCN2CCN(C(=O)c3ccc(Cc4ccc5c(c4)c(C)c(C)n5CCCN4CCN(C)CC4)cc3)CC2)c1` [Compound 3523, (4-((2,3-dimethyl-1-(3-(4-methylpiperazin-1-yl)propyl)-1H-indol-5-yl)methyl)phenyl)(4-(3-methoxyphenethyl)piperazin-1-yl)methanone], the IC50 is 1.4 µM in the test on A549 (setting [1]); 3.1 µM in the test on CaCo2 (setting [2]); 2.1 µM in the test on DU145 (setting [3]); 1.1 µM in the test on MDA-MB-231 (setting [4]); 2.4 µM in the test on PC3 (setting [5]); 0.8 µM in the test on SK-Mel-28 (setting [6]). In the test with SK-N-SH (setting [7]), the IC50 is 2.1 µM.

Turning to `Cc1c(C)n(CCCN2CCN(C)CC2)c2ccc(Cc3ccc(C(=O)N4CCN(CCc5ccccc5)CC4)cc3)cc12` [Compound 3524, (4-((2,3-dimethyl-1-(3-(4-methylpiperazin-1-yl)propyl)-1H-indol-5-yl)methyl)phenyl)(4-phenethylpiperazin-1-yl)methanone], the IC50 in the test on A549 (setting [1]) stood at 0.9 µM; in the test with CaCo2 (setting [2]), 1.7 µM; in the test on DU145 (setting [3]) it was 1.8 µM; in the test on MDA-MB-231 (setting [4]), 1.1 µM; in the test with PC3 (setting [5]) it was 0.9 µM; with SK-Mel-28 (setting [6]), 1.1 µM. For the same compound, the half-maximal inhibitory concentration (IC50) in the test with SK-N-SH (setting [7]) was 1.4 µM.

With `Cc1c(C)n(CCCN2CCN(C)CC2)c2ccc(Oc3ccc(C(=O)N4CCN(CCc5ccc(F)cc5)CC4)cc3)cc12` [Compound 3525, (4-((2,3-dimethyl-1-(3-(4-methylpiperazin-1-yl)propyl)-1H-indol-5-yl)oxy)phenyl)(4-(4-fluorophenethyl)piperazin-1-yl)methanone], the IC50 in the test on A549 (setting [8]) is 3.8 µM; in the test on CaCo2 (setting [9]) it was 4.1 µM; in the test with DU145 (setting [10]) it was 4.1 µM; with MDA-MB-231 (setting [11]), 4.3 µM; in the test with PC3 (setting [12]) it was 4.5 µM; in the test on SK-Mel-28 (setting [13]), 1.7 µM. Also, in the test on SK-N-SH (setting [14]), the IC50 turned out to be 1.9 µM.

In the case of `COc1ccc(CCN2CCN(C(=O)c3ccc(Oc4ccc5c(c4)c(C)c(C)n5CCCN4CCN(C)CC4)cc3)CC2)cc1` [Compound 3526], the IC50 with A549 (setting [8]) came out at 3 µM; with CaCo2 (setting [9]), 5.3 µM; in the test on DU145 (setting [10]) it was 9 µM; in the test on MDA-MB-231 (setting [11]) it was 13.4 µM; in the test on PC3 (setting [12]), 15.6 µM; with SK-Mel-28 (setting [13]), 4.8 µM. In addition, in the test with SK-N-SH (setting [14]), the IC50 turned out to be 4.8 µM.

As for `Cc1c(C)n(CCCN2CCN(C)CC2)c2ccc(Oc3ccc(C(=O)N4CCN(CCc5ccc6c(c5)OCO6)CC4)cc3)cc12` [Compound 3527, (4-(2-(benzo[d][1,3]dioxol-5-yl)ethyl)piperazin-1-yl)(4-((2,3-dimethyl-1-(3-(4-methylpiperazin-1-yl)propyl)-1H-indol-5-yl)oxy)phenyl)methanone], the IC50 was determined as 5 µM in the test on A549 (setting [8]); 4.1 µM in the test with CaCo2 (setting [9]); 4.5 µM in the test with DU145 (setting [10]); 4.8 µM in the test on MDA-MB-231 (setting [11]); 7.2 µM in the test with PC3 (setting [12]); 4.1 µM in the test with SK-Mel-28 (setting [13]). Besides, in the test on SK-N-SH (setting [14]), the IC50 stood at 3.2 µM.

Turning to `Cc1c(C)n(CCCN2CCN(C)CC2)c2ccc(Oc3ccc(C(=O)N4CCN(CCc5cccc(F)c5)CC4)cc3)cc12` [Compound 3528], the 50% inhibitory concentration (IC50) in the test on A549 (setting [8]) turned out to be 6.6 µM; in the test on CaCo2 (setting [9]), 4.6 µM; in the test on DU145 (setting [10]), 5.2 µM; in the test with MDA-MB-231 (setting [11]), 5.9 µM; in the test with PC3 (setting [12]), 7.3 µM; with SK-Mel-28 (setting [13]), 3.8 µM. For the same compound, in the test on SK-N-SH (setting [14]), the 50% inhibitory concentration (IC50) is 4.3 µM.

For the compound `COc1cccc(CCN2CCN(C(=O)c3ccc(Oc4ccc5c(c4)c(C)c(C)n5CCCN4CCN(C)CC4)cc3)CC2)c1` [Compound 3529], the IC50 in the test with A549 (setting [8]) came out at 4.4 µM; in the test with CaCo2 (setting [9]), 4.2 µM; in the test on DU145 (setting [10]) it was 4.2 µM; in the test with MDA-MB-231 (setting [11]), 4.5 µM; in the test on PC3 (setting [12]), 4.8 µM; in the test with SK-Mel-28 (setting [13]), 2.4 µM. Moreover, the IC50 in the test on SK-N-SH (setting [14]) is 2 µM.
